In ChEMBL document CHEMBL1156319, “Synthesis, crystal and antibacterial studies of diversely functionalized tetrahydropyridin-4-ol” (2010):
In brackets after ≈: the same amount, converted by molar mass.

Assays:
Format in all cases: functional
Escherichia coli [1] = assay: Antibacterial activity against Escherichia coli LCB0010 by two fold serial dilution method
Pseudomonas aeruginosa = assay: Antibacterial activity against Pseudomonas aeruginosa LCB0013 by two fold serial dilution method
Escherichia coli [2] = assay: Antibacterial activity against Escherichia coli LCB0012 by two fold serial dilution method
Klebsiella pneumoniae = assay: Antibacterial activity against Klebsiella pneumoniae LCB0014 by two fold serial dilution method
Enterococcus faecalis [3] = assay: Antibacterial activity against vancomycin and Linezolid resistant Enterococcus faecalis LCB0007 by two fold serial dilution method
Staphylococcus aureus [4] = assay: Antibacterial activity against Staphylococcus aureus LCB0001 by two fold serial dilution method
Haemophilus influenzae = assay: Antibacterial activity against Haemophilus influenzae LCB0015 by two fold serial dilution method
Enterococcus faecalis [5] = assay: Antibacterial activity against vancomycin-resistant Enterococcus faecalis LCB0006 by two fold serial dilution method
Enterococcus faecalis [6] = assay: Antibacterial activity against Enterococcus faecalis LCB0005 by two fold serial dilution method
[7] = test system: Staphylococcus epidermidis; assay: Antibacterial activity against methicillin-resistant Staphylococcus epidermidis LCB0004 by two fold serial dilution method
Moraxella catarrhalis = assay: Antibacterial activity against Moraxella catarrhalis LCB0016 by two fold serial dilution method
Enterococcus faecium [8] = assay: Antibacterial activity against Enterococcus faecium LCB0009 by two fold serial dilution method
Enterococcus faecium [9] = assay: Antibacterial activity against vancomycin-resistant Enterococcus faecium LCB0008 by two fold serial dilution method
Staphylococcus aureus [10] = assay: Antibacterial activity against methicillin-resistant Staphylococcus aureus LCB0002 by two fold serial dilution method
Escherichia coli [11] = assay: Antibacterial activity against Escherichia coli LCB0011 by two fold serial dilution method
[12] = test system: Staphylococcus epidermidis; assay: Antibacterial activity against Staphylococcus epidermidis LCB0003 by two fold serial dilution method

| SMILES | MIC90 (Escherichia coli [1]) [µg/mL] | MIC90 (Pseudomonas aeruginosa) [µg/mL] | MIC90 (Escherichia coli [2]) [µg/mL] | MIC90 (Klebsiella pneumoniae) [µg/mL] | MIC90 (Enterococcus faecalis [3]) [µg/mL] | MIC90 (Staphylococcus aureus [4]) [µg/mL] | MIC90 (Haemophilus influenzae) [µg/mL] | MIC90 (Enterococcus faecalis [5]) [µg/mL] | MIC90 (Enterococcus faecalis [6]) [µg/mL] | MIC90 [7] [µg/mL] | MIC90 (Moraxella catarrhalis) [µg/mL] | MIC90 (Enterococcus faecium [8]) [µg/mL] | MIC90 (Enterococcus faecium [9]) [µg/mL] | MIC90 (Staphylococcus aureus [10]) [µg/mL] | MIC90 (Escherichia coli [11]) [µg/mL] | MIC90 [12] [µg/mL] |
| --- | --- | --- | --- | --- | --- | --- | --- | --- | --- | --- | --- | --- | --- | --- | --- | --- |
| CC(=O)NC[C@H]1CN(c2ccc(N3CCOCC3)c(F)c2)C(=O)O1 [LINEZOLID] | > 128 | > 128 | 128 (≈ 379 µM) | > 128 | 64 (≈ 190 µM) | 2 (≈ 5.93 µM) | 16 (≈ 47.4 µM) | 4 (≈ 11.9 µM) | 4 (≈ 11.9 µM) | 8 (≈ 23.7 µM) | 4 (≈ 11.9 µM) | 4 (≈ 11.9 µM) | 2 (≈ 5.93 µM) | 2 (≈ 5.93 µM) | 16 (≈ 47.4 µM) | 4 (≈ 11.9 µM) |
| N[C@@H]1[C@H]2CN(c3nc4c(cc3F)c(=O)c(C(=O)O)cn4-c3ccc(F)cc3F)C[C@@H]12 [TROVAFLOXACIN] | < 0.0625 | 0.5 (≈ 1.2 µM) | < 0.0625 | 0.125 (≈ 0.3 µM) | 16 (≈ 38.4 µM) | < 0.0625 | < 0.0625 | 16 (≈ 38.4 µM) | < 0.0625 | < 0.0625 | < 0.0625 | 32 (≈ 76.9 µM) | 128 (≈ 307 µM) | 2 (≈ 4.8 µM) | < 0.0625 | < 0.0625 |
